Results on 14 compounds are retold here after ChEMBL document CHEMBL1144445, “Design, synthesis and antiviral activity of novel 4,5-disubstituted 7-(beta-D-ribofuranosyl)pyrrolo[2,3-d][1,2,3]triazines and the novel 3-amino-5-methyl-1-(beta-D-ribofuranosyl)- and 3-amino-5-methyl-1-(2-deoxy-beta-D-ribofuranosyl)-1,5-dihydro-1,4,5,6,7,8-hexaazaacenaphthylene as analogues of …” (J Med Chem, 2005).

What is called IC50 is the midpoint of a concentration-inhibition curve. Low values mean higher potency, high ones lower potency. What is called IC90 is the point of the concentration-response curve where the effect stands at 90%. Read a high IC90 as a need for much substance.

The subject of assay [1] is KB. Put plainly: Inhibitory concentration was determined for KB cell growth. The assay is classed as functional, cell-based. The settings on record: Homo sapiens.
Assay [2] has as its system Human alphaherpesvirus 1. Put plainly: Inhibitory concentration against human herpes simplex virus type 1 using ELISA test. The assay is classed as functional, organism-based. (An ELISA detects its analyte on a solid surface through an enzyme-linked reagent.)
In assay [3] the test system is HFF. Put plainly: Visual cytotoxicity was determined in uninfected HFF cells using plaque assay. The assay is classed as functional, cell-based. The settings on record: Homo sapiens.
Assay [4] deals with Human betaherpesvirus 5. Description: Inhibitory concentration against human cytomegalovirus using plaque assay. The assay is classed as functional, organism-based.
The test system of assay [5] is Human betaherpesvirus 5. Put plainly: Inhibitory concentration against human cytomegalovirus using yield-reduction assay. The assay is classed as functional.
For assay [6], the system named is Human immunodeficiency virus 1. Put plainly: Inhibitory concentration against human immunodeficiency virus type 1. The assay is classed as functional, organism-based.

Consider `CCOC(=O)c1cn([C@@H]2O[C@H](CO)[C@@H](O)[C@H]2O)c2nnnc(N)c12`, for which the IC50 in assay [1] is 80 µM; in assay [2], above 100 µM; in assay [3], above 100 µM; in assay [4], above 100 µM.
As to `N/C(=N\O)c1cn([C@@H]2O[C@H](CO)[C@@H](O)[C@H]2O)c2nnnc(N)c12`, the IC50 in assay [1] was 1.5 µM; in assay [2] it was 0.9 µM; in assay [3] it was 6.6 µM; in assay [4] it was below 2 µM.
As for `NC(=O)c1cn([C@@H]2O[C@H](COC(=O)c3ccccc3)[C@@H](OC(=O)c3ccccc3)[C@H]2OC(=O)c2ccccc2)c(N)c1C(N)=O`, the IC50 in assay [1], in assay [2], in assay [3] and in assay [4] was above 10 µM throughout.
On to `CN(N)c1nnnc2c1c(C#N)cn2[C@@H]1O[C@H](COC(=O)c2ccccc2)[C@@H](OC(=O)c2ccccc2)[C@H]1OC(=O)c1ccccc1`, for which the IC50 in assay [1], in assay [2], in assay [3] and in assay [4] was above 10 µM in each case.
With `N#C/N=C(\N)c1cn([C@@H]2O[C@H](CO)[C@@H](O)[C@H]2O)c2nnnc(N)c12`, the IC50 is 5 µM in assay [1], above 100 µM in assay [2], above 100 µM in assay [3] and above 100 µM in assay [4].
Take `NC(=O)c1cn([C@@H]2O[C@H](CO)[C@@H](O)[C@H]2O)c2nnnc(N)c12`: the IC90 in assay [5] came to 0.4 µM. In addition, the IC50 in assay [1] is 0.08 µM; in assay [2], 2.5 µM; in assay [3], 0.3 µM; in assay [4], 0.3 µM.
As to `CN1N=C(N)c2cn([C@@H]3O[C@H](CO)[C@@H](O)[C@H]3O)c3nnnc1c23`, the IC50 in assay [1] is 2.5 µM; in assay [6] it was 0.6 µM; in assay [2], above 100 µM; in assay [3] it was 10 µM; in assay [4], 14 µM.
Consider `N=C(NN)c1cn([C@@H]2O[C@H](CO)[C@@H](O)[C@H]2O)c2nnnc(N)c12`, for which, in assay [5], it took 1 µM to reach the 90% level (IC90). For the same compound, the half-maximal inhibitory concentration (IC50) came to 3 µM in assay [1], 80 µM in assay [2], 32 µM in assay [3] and 32 µM in assay [4].
For the compound `NC(=S)c1cn([C@@H]2O[C@H](CO)[C@@H](O)[C@H]2O)c2nnnc(N)c12`, the IC50 in assay [1] stood at 2 µM; in assay [2], 40 µM; in assay [3], 32 µM; in assay [4], 8.5 µM.
`NC(=O)c1cn([C@@H]2O[C@H](COC(=O)c3ccccc3)[C@@H](OC(=O)c3ccccc3)[C@H]2OC(=O)c2ccccc2)c2nnnc(O)c12`: the 50% inhibitory concentration (IC50) in assay [1], in assay [2], in assay [3] and in assay [4] was above 10 µM each time.
On to `N#Cc1cn([C@@H]2O[C@H](COC(=O)c3ccccc3)[C@@H](OC(=O)c3ccccc3)[C@H]2OC(=O)c2ccccc2)c2nnnc(-n3cncn3)c12`, for which the IC50 in assay [1], in assay [2], in assay [3] and in assay [4] was above 10 µM each time.
Turning to `COC(=N)c1cn([C@@H]2O[C@H](CO)[C@@H](O)[C@H]2O)c2nnnc(N)c12`, the IC50 was 20 µM in assay [1], above 100 µM in assay [2], 21 µM in assay [3] and 32 µM in assay [4].
With `Cc1ccc(C(=O)OC[C@H]2O[C@@H](n3cc(C(N)=O)c(C(N)=O)c3[N+](=O)[O-])C[C@@H]2OC(=O)c2ccc(C)cc2)cc1`, the figures for the concentration for half-maximal inhibition (IC50) in assay [2], in assay [3] and in assay [4] were above 100 µM, 32 µM and 32 µM, respectively.
Consider `Cc1ccc(C(=O)OC[C@H]2O[C@@H](n3cc(C(N)=O)c(C(N)=O)c3N)C[C@@H]2OC(=O)c2ccc(C)cc2)cc1`, for which the IC50 is 100 µM in assay [1], above 100 µM in assay [2], 32 µM in assay [3] and 12 µM in assay [4].
